In patent US20260152779A1, “GENETICALLY ENGINEERED FUMONISIN SENSITIVE YEAST” (FFOQSI GMBH, priority 2022, published 2026):
Where two headings read alike, the source gives them in different places.

How the values were obtained:
wild type yeast = experiment: growth inhibition of wild type yeast by FB1; assay type: cell-based, Saccharomyces cerevisiae; settings: at a concentration of 1000 μM FB1 or more
Description: Growth rates and growth inhibition can be determined by any method well known in the art, such as, but not limited to, determining cell number, using e.g. a hemocytometer, determining cell viability, e.g. using methylene blue staining, or determining relative growth calculated as the resultant optical density ratio of toxin treated cultures to untreated controls. Also yeast dry weight can be determined or conductance change can be measured during yeast growth, employing direct and indirect methods.

YRU94ML = experiment: spotting on YPD agar plates with crude FB1, strain YRU94ML; assay type: cell-based, Saccharomyces cerevisiae; settings: crude fumonisin stock (FB1+FB2+FB3) containing >70% FB1, 30° C., 5 days
Protocol: (§1) In a further setting, the sensitive yeast strains YRU74, YRU94ML and YTKT33 were grown in YPD (1% yeast extract, 2% peptone, 2% glucose) overnight alongside the original resistant YPH500 strain. The next day, they were rediluted to an OD600 of 0.1. After reaching exponential growth (>0.3) they were diluted to an OD of 0.1 and diluted further (1:10 and 1:100) for spottings on YPD agar plates alongside containing different concentrations of the crude fumonisin stock (FB1+FB2+FB3, measured via LC-MS/MS) containing >70% FB1. The concentrations used for the prepared FB1 plates were calculated based on the measured FB1. 3 μl of each strain/dilution was pipetted onto the plates and left to grow at 30° C. for 5 days. The photos of these plates are shown above. […] Three different dilutions of each strain were spotted on every plate. […] Both YRU94ML and YTKT33 growth is inhibited at a concentration of 250 μM FB1.

YTKT33 [1] = experiment: spotting on YPD agar plates with crude FB1, strain YTKT33; assay type: cell-based, Saccharomyces cerevisiae; settings: crude fumonisin stock (FB1+FB2+FB3) containing >70% FB1, 30° C., 5 days
Protocol: as §1

YTKT33 [2] = experiment: spotting on SC-URA agar plates with FB1, strain YTKT33; assay type: cell-based, Saccharomyces cerevisiae; settings: SC-URA agar plates, 87,88% pure FB1, empty pYes2-PTEF1 vector, 30° C., 5 days
Protocol: In a further setting, sensitive yeast strains YRU74, YRU94ML, YTKT33 and the original yeast strain YPH500 were transformed with the empty pYes2-PTEF1 vector containing the marker URA3, so that they could grow on Synthetic Complete media lacking uracil (SC-URA). They were grown in SC-URA overnight and rediluted to an OD600 of 0.1 in the morning. After reaching exponential growth (OD600>0.3), they were diluted again for spottings on plates containing 87,88% pure FB1. 3 μl of each strain/dilution was pipetted onto the plates and left to grow at 30° C. for 5 days. The photos of these plates are shown above. […] Three spots were spotted on each plate for every strain.

Arabidopsis = settings: bioassay e.g. 10 days; cited from earlier work
[3] = tested on: brine shrimp (Artemia salina); settings: cited from earlier work
primary rat hepatocytes = settings: read-out: acute cytotoxicity (IC50 values); cited from earlier work
human HepG2 cells = settings: read-out: acute cytotoxicity (IC50); cited from earlier work
YPH500 = experiment: paper disk inhibition zone assay, wild-type strain YPH500; assay type: cell-based, Saccharomyces cerevisiae
YTKT33 [4] = experiment: FB1 resistance conferred by candidate genes expressed in YTKT33 on SC-URA FB1 plates; assay type: cell-based, Saccharomyces cerevisiae; settings: SC-URA plates with different FB1 concentrations, spottings OD600 0.1, 0.01, 0.001
Description: The plasmids described by Janevska et al., 2020, were kindly provided by Dr. Vito Valiante. Plasmid pYes2-PTEF1 (=empty vector, TEF1 promoter) was used to express different genes assumed to confer resistance against FB1. Candidate genes were coned behind the TEF1 promoter into that plasmid and subsequently transformed into the sensitive yeast strain YTKT33 for testing.
YOR1 (with endogenous promoter on an episomal (multicopy 2 μm) plasmid) and FvCER1 (positive control, resistance conferring ceramide synthase from Fusarium verticillioides) were used as controls. Sphingopyxis sp.

Molecule: Fumonisin B1 [FB1]
- growth inhibition of wild type yeast (wild type yeast): does not show significant growth inhibition
- FB1 concentration at which growth is inhibited (YRU94ML): 250 µM
- FB1 concentration at which growth is inhibited (YTKT33 [1]): 250 µM
- FB1 concentration at which growth is inhibited (YTKT33 [2]): ~100 µM
- FB1 concentration at which seed germination and root development is already strongly inhibited (Arabidopsis): 1 µM
- IC50 ([3]; 24 h incubation): ~10 µM
- IC50 ([3]; 48 h incubation): 1.7 µM
- IC50 (primary rat hepatocytes): 2000 µM
- IC50 (human HepG2 cells): 399 µM

Molecule: fumonisin
- development of an inhibition zone (YPH500): did not result in the development of an inhibition zone

B1: YOR1: yeast ABC transporter gene with endogenous promoter on an episomal multicopy plasmid, used as control (protein, UniProt P53049 1-1477, looked up)
Oligomycin resistance …: MTITVGDAVSETELENKSQNVVLSPKASASSDISTDVDKDTSSSWDDKSLLPTGEYIVDRNKPQTYLNSDDIEKVTESDIFPQKRLFSFLHSKKIPEVPQTDDERKIYPLFHTNIISNMFFWWVLPILRVGYKRTIQPNDLFKMDPRMSIETLYDDFEKNMIYYFEKTRKKYRKRHPEATEEEVMENAKLPKHTVLRALLFTFKKQYFMSIVFAILANCTSGFNPMITKRLIEFVEEKAIFHSMHVNKGIGYAIGACLMMFVNGLTFNHFFHTSQLTGVQAKSILTKAAMKKMFNASNYARHCFPNGKVTSFVTTDLARIEFALSFQPFLAGFPAILAICIVLLIVNLGPIALVGIGIFFGGFFISLFAFKLILGFRIAANIFTDARVTMMREVLNNIKMIKYYTWEDAYEKNIQDIRTKEISKVRKMQLSRNFLIAMAMSLPSIASLVTFLAMYKVNKGGRQPGNIFASLSLFQVLSLQMFFLPIAIGTGIDMIIGLGRLQSLLEAPEDDPNQMIEMKPSPGFDPKLALKMTHCSFEWEDYELNDAIEEAKGEAKDEGKKNKKKRKDTWGKPSASTNKAKRLDNMLKDRDGPEDLEKTSFRGFKDLNFDIKKGEFIMITGPIGTGKSSLLNAMAGSMRKTDGKVEVNGDLLMCGYPWIQNASVRDNIIFGSPFNKEKYDEVVRVCSLKADLDILPAGDMTEIGERGITLSGGQKARINLARSVYKKKDIYLFDDVLSAVDSRVGKHIMDECLTGMLANKTRILATHQLSLIERASRVIVLGTDGQVDIGTVDELKARNQTLINLLQFSSQNSEKEDEEQEAVVAGELGQLKYESEVKELTELKKKATEMSQTANSGKIVADGHTSSKEERAVNSISLKIYREYIKAAVGKWGFIALPLYAILVVGTTFCSLFSSVWLSYWTENKFKNRPPSFYMGLYSFFVFAAFIFMNGQFTILCAMGIMASKWLNLRAVKRILHTPMSYIDTTPLGRILNRFTKDTDSLDNELTESLRLMTSQFANIVGVCVMCIVYLPWFAIAIPFLLVIFVLIADHYQSSGREIKRLEAVQRSFVYNNLNEVLGGMDTIKAYRSQERFLAKSDFLINKMNEAGYLVVVLQRWVGIFLDMVAIAFALIITLLCVTRAFPISAASVGVLLTYVLQLPGLLNTILRAMTQTENDMNSAERLVTYATELPLEASYRKPEMTPPESWPSMGEIIFENVDFAYRPGLPIVLKNLNLNIKSGEKIGICGRTGAGKSTIMSALYRLNELTAGKILIDNVDISQLGLFDLRRKLAIIPQDPVLFRGTIRKNLDPFNERTDDELWDALVRGGAIAKDDLPEVKLQKPDENGTHGKMHKFHLDQAVEEEGSNFSLGERQLLALTRALVRQSKILILDEATSSVDYETDGKIQTRIVEEFGDCTILCIAHRLKTIVNYDRILVLEKGEVAEFDTPWTLFSQEDSIFRSMCSRSGIVENDFENRS
- resistance to FB1 conferred by the expressed gene (YTKT33 [4]): weak resistance
